Results on three compounds are retold here after paper PMC7235904, “Is Blood a Good Indicator for Detecting Antimicrobials in Meat? Evidence for the Development of In Vivo Surveillance Methods” (Antibiotics, 2020).

Read-outs that look alike come from different tables or passages of the source. Marks after values point to notes of the source that are not given here.

Data set [1] in a line: Antimicrobial residue concentration and depletion in muscle of treated pigs within the withdrawal period (LC-MS/MS or HPLC-FLD). It counts as in vivo. The settings on record: for half-life: both sexes, T1/2=Ln(2)/λz, read-out: T1/2 half-life of elimination (MUSCLE) (converted); for half-life / concentration at 4 day of withdrawal period / concentration at 7 day of withdrawal period / concentration at 15 day of withdrawal period / concentration at 2 day of withdrawal period / concentration at 3 day of withdrawal period: intramuscular; for concentration at 4 day of withdrawal period: withdrawal period Day 4, pig; for concentration at 7 day of withdrawal period: withdrawal period Day 7, pig; for concentration at 15 day of withdrawal period: withdrawal period Day 15, pig; for Maximum concentration value in Muscle / Minimum concentration value in Muscle: over the sample bank of treated piglets; for Time until levels reached the detection limit (DL) in muscle: DL 10 µg/kg; for Slope (MUSCLE): regression of concentration over the withdrawal period, deep intramuscular treatment; for concentration at 2 day of withdrawal period: withdrawal period Day 2, pig; for concentration at 3 day of withdrawal period: withdrawal period Day 3, pig. An excerpt: To obtain samples containing antimicrobial compounds administered in vivo, 93 piglets (62 female, 31 male) with an average weight of 43.00 ± 12.79 kg were provided at treatment onset. These piglets were untreated animals that remained on the premises of the Faculty of Veterinary Sciences at the University of Zaragoza (Zaragoza, Spain) 40 days before administration of the compounds. Both during the acclimatization and withdrawal periods, animals were fed ad libitum with a special mixed feed that was free of antibiotics ([…], Spain), and water was provided from a separated, controlled water circuit. Piglets were raised in separate pens depending on the antibiotic administrated. After administration, animals were slaughtered at preset intervals within the withdrawal period in order to obtain samples containing different antimicrobial concentrations above and below the MRLs for muscle. Figure S1 indicates the slaughter days and the withdrawal periods set by the manufacturer for each antimicrobial compound administered. Between one and three piglets were slaughtered on the same day post-administration. The day of slaughter was calculated from the first day after the last antimicrobial treatment dose. […] Apart from samples containing antimicrobial compounds administered in vivo, and as a part of the sample bank, 15 of the 93 piglets were slaughtered after the acclimatization period and before treatment onset. Animals were stunned and slaughtered following the guidelines established by European Council Regulation (EC) No. 1099/2009 [39] regarding the protection of animals at the time of slaughter or killing. A penetrative captive bolt gun was used to stun the pigs, positioning it firmly against the skin, in the middle of the forehead, 2 cm above the line of the eyes, aiming towards the tail. This was followed by complete exsanguination carried out by incision in the jugular furrow at the base of the neck to sever all the major blood vessels arising from the heart. The samples obtained from them were used as blank samples for analysis. […] Samples were immediately frozen at -20 °C until analysis. For HPLC-FLD analyses, matrix solid phase dispersion (MSPD) was used. A total of 1.00 ± 0.01 g of tissue was weighed. Internal quality control samples were spiked at this point. […] It was introduced into a 25 mL reservoir and compacted. Clean-up was made with 8 mL of hexane, and quinolones were eluted with 15 mL acetonitrile/methanol (1:1) acidified with acetic acid 1%. […] The extraction procedure for LC-MS/MS determination was based on Chico et al.. […] All samples were spiked with IS at this point, and calibrants and internal quality control samples were prepared by spiking the corresponding amount of standard working solution. A total of 200 μL of 0.1 M EDTA was added, followed by 10 mL of 70% methanol, and samples were vortexed for 30 s, swung for 15 min, and finally centrifuged at 4500 rcf for 10 min at a temperature below 10 °C (Heraeus Multifuge X3 FR, Heraeus, Hanau, Germany). Then, 500 μL of supernatant was collected and diluted by adding 1500 μL of water. Extracts were filtered through 0.2 μm pore filters directly into LC-MS/MS vials. […] Mobile phase consisted of eluent A: phosphoric acid with trimethylamine buffer (pH = 3), and eluent B: acetonitrile, in isocratic mode (21:79) with a flow rate of 1 mL/min. Injected volume was 50 μL. […] The same mobile phase and gradient conditions as in SCIEX instruments were applied. Injected volume was 10 μL. Two ESI+ MRM transitions were monitored for each compound (Table S5). […] Results were represented as the mean ± standard deviation using the PRISM program (GraphPad Software, Inc., San Diego, USA). The rates of elimination (λz) of antibiotics from muscle and blood were determined by regression analysis. […]

Data set [2] in a line: Antimicrobial residue concentration and depletion in blood (serum) of treated pigs within the withdrawal period (LC-MS/MS). The class given is in vivo. The note with it: for half-life: both sexes, intramuscular, T1/2=Ln(2)/λz, read-out: T1/2 half-life of elimination (BLOOD) (converted); for half-life / Slope (BLOOD): pig blood serum; for Maximum concentration value in Blood / Minimum concentration value in Blood: over the sample bank of treated piglets; for Slope (BLOOD): regression of concentration over the withdrawal period, deep intramuscular treatment; for Time until levels reached the detection limit (DL) in blood: DL 10 µg/kg. An excerpt:
To obtain samples containing antimicrobial compounds administered in vivo, 93 piglets (62 female, 31 male) with an average weight of 43.00 ± 12.79 kg were provided at treatment onset. These piglets were untreated animals that remained on the premises of the Faculty of Veterinary Sciences at the University of Zaragoza (Zaragoza, Spain) 40 days before administration of the compounds. Both during the acclimatization and withdrawal periods, animals were fed ad libitum with a special mixed feed that was free of antibiotics ([…], Spain), and water was provided from a separated, controlled water circuit. Piglets were raised in separate pens depending on the antibiotic administrated. After administration, animals were slaughtered at preset intervals within the withdrawal period in order to obtain samples containing different antimicrobial concentrations above and below the MRLs for muscle. Figure S1 indicates the slaughter days and the withdrawal periods set by the manufacturer for each antimicrobial compound administered. Between one and three piglets were slaughtered on the same day post-administration. The day of slaughter was calculated from the first day after the last antimicrobial treatment dose. […] Apart from samples containing antimicrobial compounds administered in vivo, and as a part of the sample bank, 15 of the 93 piglets were slaughtered after the acclimatization period and before treatment onset. Animals were stunned and slaughtered following the guidelines established by European Council Regulation (EC) No. 1099/2009 [39] regarding the protection of animals at the time of slaughter or killing. A penetrative captive bolt gun was used to stun the pigs, positioning it firmly against the skin, in the middle of the forehead, 2 cm above the line of the eyes, aiming towards the tail. This was followed by complete exsanguination carried out by incision in the jugular furrow at the base of the neck to sever all the major blood vessels arising from the heart. The samples obtained from them were used as blank samples for analysis. Blood was collected not only from slaughtered animals, but also from living animals on each day of slaughter. […] For quinolones in blood serum samples, a LC-MS/MS method was set up using a SCIEX Exion LC coupled to TripleQuad 6500+ triple quadrupole detector equipped with an Acquity Ultra Performance Liquid Chromatography Ethylene Bridged Hybrid (UPLC BEH) C18 (1.7 μm, 2.1 × 100 mm) column. Mobile phase consisted of eluent A: 0.1% formic acid in water, and eluent B: 0.1% formic acid in acetonitrile at a flow rate of 0.4 mL/min. […] Injected volume was 5 μL. Analytes were detected using positive electrospray ionization (ESI+) in multiple reaction monitoring (MRM) mode, and two transitions were monitored for each compound of interest (Table S4). […] The same mobile phase and gradient conditions as in SCIEX instruments were applied. […] Two ESI+ MRM transitions were monitored for each compound (Table S5). […] Results were represented as the mean ± standard deviation using the PRISM program (GraphPad Software, Inc., San Diego, USA). The rates of elimination (λz) of antibiotics from muscle and blood were determined by regression analysis. The corresponding half-lives of elimination were calculated according to the following equation: Half-life of elimination.

Details of data set [3]: method as in earlier work. The note with it: cited from earlier work.
The conditions of data set [4]: cited from earlier work; for Suppression Period (withdrawal period set by the manufacturer): commercial product, deep intramuscular, ref manufacturer; for MRLs: muscle, ref Regulation (EEC) No. 2377/90.
The mark [5] stands for this setting: forequarter muscle, read-out: Concentration in Forequarters.
The mark [6] stands for this setting: hindquarter muscle, read-out: Concentration in Hindquarters.
Where [7] appears, read: loin muscle, read-out: Concentration in Loins.

In the case of `CN(C)[C@@H]1C(O)=C(C(N)=O)C(=O)[C@@]2(O)C(O)=C3C(=O)c4c(O)cccc4[C@@](C)(O)[C@H]3[C@H](O)[C@@H]12` [Oxytetracycline, oxytetracycline], in data set [1] (pig muscle), the half-life was 82.3 h, the “Time until levels reached the detection limit (DL) in muscle” value was 26 days after inoculation and the “Slope (MUSCLE)” value was −0.08784 ± 0.005403 ^a. In addition, in data set [1] (setting [5]), the concentration at 4 day of withdrawal period was 971 ± 53.3 ng/g, the concentration at 7 day of withdrawal period was 411 ± 27.5 ng/g and the concentration at 15 day of withdrawal period was determined as 99.7 ± 6.51 ng/g. In addition, in data set [1] (setting [6]), the concentration at 4 day of withdrawal period came out at 1010 ± 55.5 ng/g, the concentration at 7 day of withdrawal period is 383 ± 45.9 ng/g and the concentration at 15 day of withdrawal period is 100 ± 16 ng/g. In data set [1] (setting [7]), the concentration at 4 day of withdrawal period came out at 905 ± 118 ng/g, the concentration at 7 day of withdrawal period came out at 383 ± 12.9 ng/g and the concentration at 15 day of withdrawal period came out at 125 ± 15.7 ng/g. In data set [1], the “Maximum concentration value in Muscle” value is on record as 1005.33 ± 55.47 µg/kg and the “Minimum concentration value in Muscle” value worked out at 31.33 ± 3.21 µg/kg. Also, in data set [2], the half-life is 86.2 h, the “Maximum concentration value in Blood” value was found to be 615.00 ± 204.47 µg/kg, the “Minimum concentration value in Blood” value is on record as 24.00 ± 1.73 µg/kg and the “Slope (BLOOD)” value is −0.08879 ± 0.007069 ^a. In data set [2] (pig blood), the “Time until levels reached the detection limit (DL) in blood” value is on record as 25 days after inoculation. Also, in data set [3], the “Share of the dose eliminated in the feces” value is reported as 40% and the “Share of the dose eliminated in urine via glomerular filtration” value is recorded as 60%. In data set [4], the “Suppression Period (withdrawal period set by the manufacturer)” value is recorded as 28 days and the MRLs is recorded as 100 µg/kg.
As for `CC1(C)S[C@@H]2[C@H](NC(=O)[C@H](N)c3ccc(O)cc3)C(=O)N2[C@H]1C(=O)O` [Amoxicillin, amoxicillin], the concentration at 2 day of withdrawal period in data set [1] (setting [5]) amounted to 20.7 ± 1.15 ng/g. Further, the concentration at 2 day of withdrawal period in data set [1] (setting [6]) is 25.3 ± 6.43 ng/g. Also, the concentration at 2 day of withdrawal period in data set [1] (setting [7]) stood at 149 ± 8.54 ng/g. In addition, in data set [1], the “Maximum concentration value in Muscle” value came to 307.00 ± 10.39 µg/kg and the “Minimum concentration value in Muscle” value worked out at 13.33 ± 2.52 µg/kg. Also, the “Concentration in loins compared with forequarters and hindquarters” value in data set [1] (pig muscle groups, Table S1) is recorded as “over seven times higher”. Also, in data set [1] (pig muscle, MRL 50 µg/kg), the “Time at which muscle amounts were close to the MRL” value is recorded as “first day of the withdrawal period”. For the same compound, in data set [2], the “Maximum concentration value in Blood” value came to 73.00 ± 6.24 µg/kg and the “Minimum concentration value in Blood” value came to 19.00 ± 1.00 µg/kg. Besides, in data set [2] (pig blood, MRL 50 µg/kg), the “Time at which blood amounts were close to the MRL” value is reported as “first day of the withdrawal period”. In data set [4], the “Suppression Period (withdrawal period set by the manufacturer)” value is on record as 25 days and the MRLs is listed as 50 µg/kg.
`CCN1CCN(c2cc3c(cc2F)c(=O)c(C(=O)O)cn3C2CC2)CC1` [Enrofloxacin, enrofloxacin]: in data set [1] (pig muscle), the half-life is 22.1 h, the “Time until levels reached the detection limit (DL) in muscle” value was determined as 7 days after inoculation and the “Slope (MUSCLE)” value is on record as −0.3289 ± 0.01929 ^a. In data set [1] (setting [5]), the concentration at 2 day of withdrawal period came out at 374 ± 4.73 ng/g and the concentration at 3 day of withdrawal period was 990.5 ± 3.54 ng/g. For the same compound, in data set [1] (setting [6]), the concentration at 2 day of withdrawal period was found to be 387 ± 8.5 ng/g and the concentration at 3 day of withdrawal period came to 1075 ± 1.41 ng/g. In addition, in data set [1] (setting [7]), the concentration at 2 day of withdrawal period came to 383 ± 2 ng/g and the concentration at 3 day of withdrawal period was determined as 1060 ± 2.12 ng/g. In addition, in data set [1], the “Maximum concentration value in Muscle” value is given as 1858.00 ± 156.37 µg/kg and the “Minimum concentration value in Muscle” value was 18.00 ± 2.65 µg/kg. In data set [2], the half-life was 45.6 h, the “Maximum concentration value in Blood” value was 448.50 ± 2.12 µg/kg, the “Minimum concentration value in Blood” value was 21.67 ± 1.15 µg/kg and the “Slope (BLOOD)” value is −0.2213 ± 0.01639 ^b. Moreover, the “Time until levels reached the detection limit (DL) in blood” value in data set [2] (pig blood) stood at 8 days after inoculation.
